Experimental data published in PubChem BioAssay AID179 (DTP/NCI, 2004).
“And” between values parts separate entries of the source, which are not always exact repeats. Equal values may be shown once. The source made the active and inactive calls.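 How the source made its calls: active means compounds giving half or more protection of infected cells from virus-caused growth loss, again on retest; inactive means the rest.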

Test system: CEM cells HIV-1 protection, formazan growth assay
Test: NCI AIDS Antiviral Assay
Settings: for IC50: measured here: growth of uninfected CEM cells
Method in brief: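 Human CEM cells, uninfected and HIV-1-infected, received five drug concentrations, and growth was read by soluble formazan assay. Compounds giving at least 50% protection were retested; reproducible 100% protection defined confirmed active.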

| SMILES | EC50 [µM] | IC50 | outcome |
| --- | --- | --- | --- |
| C[CH2][Sn]([CH2]C)([O]C(=O)c1ccc(F)cc1)[O][Sn]([CH2]C)([CH2]C)[O]C(=O)c1ccc(F)cc1 | > 8.13 | 6.61 µM |  |
| c1ccc(-c2c3ccccc3[o+]c3ccccc23)cc1 | > 200 | 33.1 µM |  |
| N[C@H](CSSC[C@@H](N)C(=O)Nc1ccc2ccccc2c1)C(=O)Nc1ccc2ccccc2c1 | > 200 | 2.75 µM and 3.55 µM |  |
| Cc1ccc2nc(NC(=O)C(=O)C(C#N)c3nc4ccccc4s3)sc2c1 (centres undefined) | > 66.1 | > 66.1 µM |  |
| NC1C2CN3CCC(O2)C13 (centres undefined) |  |  | inactive |
| C[N+](C)(C)CC(=O)N/N=C(\C(=O)Nc1ccc(Cl)cc1)C1C(=O)N(c2ccccc2)N=C1N (centres undefined) | > 17.8 | > 17.8 µM |  |
| Cc1c(N=O)cc(C(C)C)c(O)c1I | > 200 | 27.5 µM |  |
| Clc1nc(Cl)nc(-c2ccccc2)n1 | > 200 | > 200 µM |  |
| COc1cc2c(c(OC)c1OC)-c1ccc(OC)c(=O)cc1C(NC(=O)CCCCCNc1ccc(N=[N+]=[N-])cc1[N+](=O)[O-])CC2 (centres undefined) | > 200 | 0.0631 µM |  |
| COc1cc(OC)cc(Oc2nc3ccc(C(F)(F)F)cc3nc2-c2ccccc2)c1 | > 200 | > 200 µM |  |
| CC(=S)N/C=C\c1nc2ccccc2[nH]c1=O |  |  | inactive |
| CCOC(=O)C[C@@]12CCCN[C@]1(C)CCc1ccccc12 |  |  | inactive |
| CC1(C)COC(C23C4C5C2C2C3C4C52I)=N1 (centres undefined) | > 79.4 | > 79.4 µM |  |
| N#C/C(=C\c1ccc(O)c(O)c1)C(=O)NCCc1ccc(O)c(O)c1 | > 200 | 30.9 µM |  |
| O=C1c2cc([N+](=O)[O-])cnc2S(=O)(=O)N1c1ccc(Br)cc1 | > 200 | 95.5 µM |  |
| CN1C2Cc3cc4c(cc3[C@@]23Cc2ccc5c(c2[C@@H]1O3)OCO5)OCO4 (some centres undefined) | > 200 | 120 µM |  |
| CCOc1cc(/C=C/c2c(C#N)c(=O)oc3ccc(C)cc23)ccc1O | > 25.1 | 4.47 µM |  |
| CCCNC(=O)N(CCC)S(=O)(=O)c1ccc(Cl)cc1 |  |  | inactive |
| C/C=C(\C)C(=O)c1c(OCC)cc(OCC)c2c(CCC)cc(=O)oc12 | > 126 | 1.91 µM |  |
| NC1=Nc2ccccc2Sc2nccn21 | > 200 | 28.8 µM |  |
| O=C(Cn1ccnc1[N+](=O)[O-])c1ccccc1 | > 562 | > 562 µM |  |
| CCC(=N\N=C(N)N)/C(C)=N/N=C(N)N | > 23.4 | > 23.4 µM |  |

| SMILES | EC50 [µM] | IC50 | outcome |
| --- | --- | --- | --- |
| CC1Cn2c(nc3ccccc32)NC1=O (centres undefined) | > 200 | > 200 µM |  |
| CC1[C@@H](OCc2ccccc2)COC(=O)N1Cc1ccccc1 (some centres undefined) | > 200 | 89.1 µM |  |
| ClCCN1CCOC1=Nc1ccc2c(c1)CCCC2 | > 200 | 43.7 µM |  |
| S=C(NNc1ccccc1Oc1ccccc1)NNc1ccccc1Oc1ccccc1 | > 100 | > 100 µM |  |
| C=C1C(=O)OC2C=CCCCC12 (centres undefined) | > 53.7 | 4.68 µM |  |
| c1ccc(N2N=NC3CCCC32N2CCCCC2)cc1 (centres undefined) | > 200 | 110 µM |  |
| CCOC(=O)c1nc2ccccc2nc1Oc1ccc(F)cc1 | > 200 | > 200 µM |  |
| COc1ccc(-c2cc(-c3ccccc3)nc3c2CC(=O)Nc2ccccc2-3)cc1OC | > 100 | 15.5 µM |  |
| Cc1cc2c(cc1C)Nc1oc3ccc4ccccc4c3c(=O)c1C=N2 | > 200 | > 200 µM |  |
| NC(=O)C(c1ccccc1)N1CCOCC1 (centres undefined) | > 200 | 1.02 µM |  |
| OCC(O)CC[CH2][Sn]([c]1ccccc1)([c]1ccccc1)[c]1ccccc1 (centres undefined) |  |  | inactive |
| COc1ccccc1NC(=S)N/N=C(/c1ccccc1)c1ccccn1 | > 0.2 | 0.0813 µM |  |
| O=[N+]([O-])c1cccc2c(Nc3ccc(S(=O)(=O)Nc4nccs4)cc3)c3ccccc3nc12 | > 200 | 21.9 µM |  |
| Cc1ccc(S(=O)(=O)N2CCSCCSCCSCCSCC2)cc1 | > 12 | > 12 µM |  |
| CCCCCCCCCCCCCCCCOC1OC(COC(C)=O)C(OC(C)=O)C(OC(C)=O)C1OC(C)=O (centres undefined) | > 12.6 | > 12.6 µM |  |
| O=C(c1ccccc1)C(SSC(C(=O)c1ccccc1)C(=O)c1ccccc1)C(=O)c1ccccc1 | > 200 | 17.4 µM |  |
| Cc1ccc(-n2cc(-c3ccc(Cl)cc3)c3c2N=CN2NC(c4cccs4)=NC32)cc1 (centres undefined) | > 100 | 42.7 µM |  |
| C=CC1(C)CCC2=C(CCC3C(C)(C(=O)OC)CCCC23C)C1=O (centres undefined) | > 200 | 28.8 µM |  |
| NC1=NNC2(C(=O)N1)c1ccccc1-c1ccccc12 | > 200 | 46.8 µM |  |
| Cc1cc(Cl)ccc1N1C(=O)C(=O)C(c2nc3ccccc3s2)C(=O)C1=O | > 91.2 | > 91.2 µM |  |
| CC(C)=NNc1cnnc2ccc([N+](=O)[O-])cc12 | > 200 | 70.8 µM |  |
| NC(=S)/N=C(/c1nc2ccc(Cl)cc2[nH]c1=O)C(O)c1ccccc1Cl (centres undefined) | > 617 | 589 µM |  |

| SMILES | EC50 [µM] | IC50 | outcome |
| --- | --- | --- | --- |
| COc1ccc(CN(Cc2ccc(OC)cc2)C(=O)CC2(O)C=CCC2)cc1 (centres undefined) | > 200 | 75.9 µM |  |
| Cc1ccc2c(c1)CC1(Cc3cc(C)ccc3C1=O)C2=O | > 200 | > 200 µM |  |
| COc1cc(C(=O)OC2CC(C)=CC[C@@]3(C)CC[C@](O)(C(C)C)C23)ccc1O (some centres undefined) | > 200 | 8.51 µM |  |
| CCCCCCNC(=O)/C(=C/C=C/c1ccccc1)NC(=O)c1ccccc1 | > 200 | 49 µM |  |
| O[C@@H]1CCC[C@@H]2NC[C@@H](c3ccc4c(c3)OCO4)[C@H]12 | > 200 | > 200 µM |  |
| OC(c1cc2ccccc2[nH]1)C1(c2cccnc2)SCCCS1 (centres undefined) | > 200 | 57.5 µM |  |
| NS(=O)(=O)OCCCCCCCOS(N)(=O)=O | > 871 | 13.5 µM |  |
| O=C(O)CN(c1cccc(Cl)c1)S(=O)(=O)c1ccccc1 |  |  | inactive |
| [N-]=[N+]=Nc1c(-c2ccccc2)c(Cl)nc2ccccc12 | > 200 | 20.4 µM |  |
| COc1ccc(/C(=N\NC(=S)NN)C(c2ccc(OC)cc2)C2C(=O)Oc3ccccc32)cc1 (centres undefined) | > 75.9 | > 75.9 µM |  |
| COc1ccc(NC(=O)/N=C2\CN(C(=O)c3c(F)cccc3F)C(=O)N2c2ccc(OC)cc2)cc1 | > 200 | 129 µM |  |
| CC(=O)OCC1OC(n2c(-c3ccccc3)cc(-c3ccco3)c(C#N)c2=O)C(OC(C)=O)C(OC(C)=O)C1OC(C)=O (centres undefined) | > 17 | > 17 µM and 12.6 µM |  |
| Cc1ccc2nc(CN3CCCC(O)C3)cc(=O)n2c1 (centres undefined) | > 200 | > 200 µM |  |
| C=C1C[C@@H]2C[C@@H](C)CC(O)[C@]2(CCCNC(=O)CCOCc2ccccc2)C1O (some centres undefined) |  |  | inactive |
| CC(C)Oc1cc2c(c3oc(=O)c4c(c13)CCC4)C(=O)[C@H](C)[C@@H](C)O2 | > 200 | 39.8 µM |  |
| COC1/C=C/OC2(C)Oc3c(C)c(O)c4c(O)c(c(/C=N/N5C(C)CN(Cc6cccc(C#N)c6)CC5C)c(O)c4c3C2=O)NC(=O)/C(C)=C\C=C\C(C)C(O)C(C)C(O)C(C)C(OC(C)=O)C1C (centres undefined) | > 200 | 6.46 µM |  |
| CC1=NN(C(=O)c2ccc(Cl)cc2)C(=O)/C1=C/c1cccc(O)c1 | > 7.94 | > 7.94 µM |  |
| CCN(CC)CCN(CC)C(=O)COc1cc2c(O)c3c(O)c(C)c4c(c13)C(=O)C(C)(O/C=C/C(OC)C(C)C(OC(C)=O)C(C)C(O)C(C)C(O)C(C)/C=C/C=C(\C)C(=O)N2)O4 (centres undefined) | > 200 | 35.5 µM |  |
| O=C(O)Cc1ccc2c(c1O)C(=O)c1c(ccc(CC(=O)O)c1O)C2=O | > 191 | 126 µM |  |
| CC1=C(N(C)C)C(=O)c2nc3n(c2C1=O)CCC3OC(N)=O (centres undefined) | > 200 | 11.2 µM |  |
| CCC(c1ccc(OC)cc1)C1NC(=S)NC1=O (centres undefined) | > 200 | 31.6 µM |  |
| CCCCCCCCCCCCC/C=C/[C@H]1[C@@H](C(=O)OC)N1S(=O)c1ccc(C)cc1 (some centres undefined) | > 200 | 74.1 µM |  |

| SMILES | EC50 [µM] | IC50 | outcome |
| --- | --- | --- | --- |
| O=C1CCCC2COc3ccc(O)c1c32 (centres undefined) |  |  | inactive |
| C=CCNC(=S)N/C=C(\C#N)c1nc2ccccc2s1 | > 200 | > 200 µM |  |
| COCCOCCOCCOc1cccc2c1C(=O)c1c(OCCOCCOCCOC)cccc1C2=O |  |  | inactive |
| Cc1ccc2oc3ccccc3c(=O)c2c1 | > 24.5 | > 24.5 µM |  |
| Cc1c2c(n(CCc3ccccc3)c1C)N(C)N=C(C#N)S2(=O)=O | > 200 | > 200 µM |  |
| C(=N\NC1=NCCN1)/c1cccc2cc3ccncc3nc12 | > 200 | 0.891 µM |  |
| COc1ccc(/C=C2\Cc3ccccc3C2=O)cc1 | > 20 | > 20 µM |  |
| CCS(=O)(=O)CCn1c(=O)c2c(ncn2C)n(C)c1=O | > 200 | > 200 µM |  |
| COCCOCOC(CCCCO)c1cc(C)c(O[Si](C)(C)C(C)(C)C)c(C)c1 (centres undefined) | > 50.1 | 4.9 µM |  |
| COc1ccc2nc3cc(Cl)ccc3c(NC(C)CCCN(C)C)c2n1 (centres undefined) | > 2 | 1.02 µM |  |
| CC1Cn2c(nnc2-c2ccccc2O)S1 (centres undefined) |  |  | inactive |
| CCOc1ccc(N=c2ssc(SC)c2-c2ccccc2)cc1 | > 200 | 61.7 µM |  |
| O=C(CC(=O)Nc1ccccc1)N/N=C/c1cc(N=Nc2ccc(Br)cc2)ccc1O | > 200 | 1.35 µM |  |
| CC(C)CCC[C@@H](C)[C@H]1CC[C@H]2[C@@H]3CC[C@H]4CC5(C[C@]4(C)[C@H]3CC[C@]12C)Nc1ccccc1S5 (some centres undefined) | > 20 | > 20 µM |  |
| CCO/C=C(\C)CC1([N+](=O)[O-])C(=O)c2ccccc2C1=O |  |  | inactive |
| CCN(CC)CCC(=O)NC1c2ccccc2Oc2ccccc21 | > 398 | 219 µM |  |
| O=C(c1ccccc1)n1c(Cc2ccccc2)nc2cc(C34CC5CC(CC(C5)C3)C4)ccc21 | > 100 | 16.6 µM |  |
| Sc1ccccc1-n1c(-c2ccccc2)ccc1-c1ccccc1 | > 200 | 151 µM and 155 µM |  |
| CCOC1NC(=O)Oc2ccccc21 (centres undefined) |  |  | inactive |
| COC(=O)/C(=N\Nc1nnc(C)n1N)C(C#N)c1ccccc1 (centres undefined) | > 575 | 93.3 µM |  |
| O=C1/C(=C/c2ccc(Cl)cc2)CNC/C1=C\c1ccc(Cl)cc1 | > 151 | 10.5 µM and 1.05 µM |  |
| CC1(Cl)C(=O)NC(=O)N(C2CC(N=[N+]=[N-])C(CO)O2)C1N=[N+]=[N-] (centres undefined) | 3.89 | 282 µM |  |
